Converted amounts (≈) assume the structure as drawn.

Type in all cases: cell-based
One experiment relates to 4T1 cells. Description: MTT cytotoxicity assay. To be noted: Mus musculus, 72 h, PTX concentration, n = 5. As to the method:
(§1) MCF-7 cells, HCT116 cells, and 4T1 cells were seeded in 96-well plates at a density of 3 × 10^3/well. After 12 h, cancer cells were incubated with free PTX and PPP micelles with a PTX concentration from 0.001 µg/mL to 10 µg/mL in 200 µL culture mediums for 72 h. One hundred microliters of culture medium containing 10 µL MTT (5 mg/mL) was added to each well for another 4 h in the dark. The absorbance was measured at 570 nm by a microplate reader (Flexstation 3, Molecular Devices LLC, Sunnyvale, CA). Comparing treated wells with controlled wells, the cell viability was analyzed as mean ± SD (n = 5). In order to confirm the enzyme responsiveness of AAN between the mPEG and PTP-7, MTT assay was used to indirectly observe the cytotoxicity of PTP-7 cleaved by legumain. One microgram of recombinant mouse legumain (Abcam, Cambridge, UK) was activated in a buffer solution (pH 4.5) which contains 50 mM critic acid, 1 mM DTT, and 1 mM EDTA (Zhou et al., [2017]). Then, PP was dissolved in the legumain solution and incubated at 37 °C for 12 h. Next, culture medium containing 0.1–100 µg/mL of free PTP-7 or legumain treated mPEG-PTP-7 was added to cancer cells. After incubation for 24 h, the cell viability was calculated as above.
(§2) The cell lines were purchased from China Center for Type Culture Collection (Wuhan, China). MCF-7 and HCT116 cells were cultivated in DMEM and 1640 with 10% FBS and 1% PS. 4T1 cells were cultivated in 1640 containing 1% glutaMAX^TM-1, 1% MEM NEAA, 1% sodium pyruvate, 10% FBS and 1% PS. All cell lines were incubated in incubator at 37℃ and 5% CO2. All qualified mice were purchased from Hangzhou Medical College and fostered in laboratory animals and all animal experiments followed the ethical requirements set by the ethics committee of Zhejiang University of Technology (20210511034).

In the next experiment the test system is HCT116 cells. Description: MTT cytotoxicity assay. As to conditions: Homo sapiens, HCT-116, 72 h, PTX concentration, n = 5. As to the method: as §1, §2
(In general: Tetrazolium assays rely on reduction of a dye to a coloured formazan, in cell work by metabolically active cells.)

Another experiment relates to MCF-7 cells. Description: MTT cytotoxicity assay. As to conditions: Homo sapiens, MCF7, 72 h, PTX concentration, n = 5. The procedure:
as §1, §2

The next experiment has as its system HCT116 tumor spheroid. Description: Inhibition of tumor spheroid growth. As to conditions: equivalent 0.05 µg/mL PTX, 9th day. The procedure:
(§3) MCF-7 cells and HCT116 cells were dispersed in culture medium containing 10% methylcellulose (0.24%, w/v) at a density of around 1 × 10^5 cells/mL. Twenty microliters of the above medium was equably dropped on the lid of a […] cell culture dish and incubated at 37 °C for 24 h. When the tumor spheroids were formed, they were removed to 96-well plates which were pre-coated with agarose. After incubation for 72 h, MCF-7 tumor spheroid was treated with PPP and free PTX at equivalent 0.1 µg/mL PTX and HCT116 tumor spheroid was treated with PPP and free PTX at equivalent 0.05 µg/mL PTX. […] Measured with maximum diameter (dmax) and minimum diameter (dmin), the tumor spheroid volume was calculated by the following equation: V=[…], and the negative control tumor spheroids grew up in culture medium.

The subject of another experiment is MCF-7 tumor spheroid. Nature of the experiment: Inhibition of tumor spheroid growth. As to conditions: MCF-7 spheroids, equivalent 0.1 µg/mL PTX, 9th day. As to the method: as §3

For orientation: IC50 means the concentration at which inhibition is half-maximal. Low values mean greater potency, high ones weaker potency. For the compound `CC(=O)O[C@H]1C(=O)[C@@]2(C)[C@H]([C@H](OC(=O)c3ccccc3)[C@]3(O)C[C@H](OC(=O)[C@H](O)[C@@H](NC(=O)c4ccccc4)c4ccccc4)C(C)=C1C3(C)C)[C@]1(OC(C)=O)CO[C@@H]1C[C@@H]2O` [PTX, Paclitaxel], the values for the half-inhibitory concentration (IC50) in the experiment with 4T1 cells, in the experiment on HCT116 cells and in the experiment with MCF-7 cells were 0.01 µg/mL (≈ 0.0117 µM), 0.006 µg/mL (≈ 0.00703 µM) and 0.028 µg/mL (≈ 0.0328 µM), respectively. Further, the “inhibition of spheroids (volume)” value is 20.51% in the experiment with HCT116 tumor spheroid and 47.88% in the experiment with MCF-7 tumor spheroid.
